Reference: US10023592B2, “Bromodomain inhibitors” (Celgene Quanticel Research, Inc., priority 2013, dated 2018)

What was measured:
[1] = system: HL-60, human proleukemia cells; experiment: Cell-MTS proliferation assay, HL-60; format: cell-based; conditions: Homo sapiens, HL-60; Cell-MTS proliferation, 168 hr
Summary of the method: (§1)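 Seeded for ~90% confluence at 7 days (Raji 15,000, HL-60 5,000, NCI-H460 3,000 cells/well); compound added 24 h post-plating as 11-point dilution, 100 μM to 2.0 nM final.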

[2] = system: NCI-H460, human non-small cell lung cancer cells; experiment: Cell-MTS proliferation assay, NCI-H460; format: cell-based; conditions: Homo sapiens, NCI-H460; Cell-MTS proliferation, 168 hr
Summary of the method: as §1

[3] = molecular target: BRD4(BD1) (Homo sapiens (Human), UniProt O60885); experiment: In vitro enzyme inhibition assay (BRD4 AlphaScreen); format: binding; conditions: in vitro enzyme inhibition assay
Summary of the method: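 His-tagged BRD4 tested by AlphaScreen for binding of biotinylated H4K5/8/12/16-tetraacetyl peptide. After 20 min at room temperature, streptavidin donor and nickel chelate acceptor beads added (5 μg/mL final each). IC50 determined.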

[4] = system: Raji, human Burkitts lymphoma cells; experiment: Cell-MTS proliferation assay, Raji; format: cell-based; conditions: Homo sapiens, Raji; Cell-MTS proliferation, 168 hr
Summary of the method: as §1

CCS(=O)(=O)Nc1cnc(Oc2ccc(F)cc2F)c(-c2cn(C)c(=O)c3occc23)c1 [Example 256, N-[6-(2,4-difluorophenoxy)-5-(6-methyl-7-oxofuro[2,3-c]pyridin-4-yl)pyridine-3-yl]ethanesulfonamide] was tested, and the IC50 [1] was < 500 nM, the IC50 [2] was > 5000 nM and the IC50 [3] was < 500 nM. For the same molecule, the IC50 [4] was < 500 nM.
CCS(=O)(=O)Nc1cnc(OCC2CC2)c(-c2cn(C)c(=O)c3occc23)c1 [Example 257, N-[6-(cyclopropylmethoxy)-5-(6-methyl-7-oxofuro[2,3-c]pyridin-4-yl)pyridine-3-yl]ethanesulfonamide] was tested, and the IC50 [1] was < 500 nM, the IC50 [2] was > 5000 nM and the IC50 [3] was < 500 nM. For the same molecule, the IC50 [4] was < 500 nM.
For Cn1cc(-c2cc(CS(C)(=O)=O)ccc2OCC(F)(F)F)c2ccoc2c1=O [Example 258, 6-methyl-4-[5-(methylsulfonylmethyl)-2-(2,2,2-trifluoroethoxy)phenyl]furo[2,3-c]pyridin-7-one], the IC50 [1] was < 500 nM, the IC50 [2] was 500 to 5000 nM and the IC50 [3] was < 500 nM. It also gave an IC50 [4] of 500 to 5000 nM.
Cn1cc(-c2nc(S(C)(=O)=O)ccc2OCC2CC2)c2ccoc2c1=O [Example 259, 4-[3-(cyclopropylmethoxy)-6-methylsulfonylpyridin-2-yl]-6-methylfuro[2,3-c]pyridin-7-one] was tested, and the IC50 [1] was < 500 nM, the IC50 [2] was > 5000 nM and the IC50 [3] was < 500 nM. It also gave an IC50 [4] of 500 to 5000 nM.
In the case of Cn1cc(-c2cc(S(C)(=O)=O)ccc2OCC2CC2)c2cc(Cl)oc2c1=O [Example 260, 2-chloro-4-[2-(cyclopropylmethoxy)-5-methylsulfonylphenyl]-6-methylfuro[2,3-c]pyridin-7-one], the IC50 [1] is reported as < 500 nM, the IC50 [2] is reported as 500 to 5000 nM and the IC50 [3] is reported as < 500 nM. For the same molecule, the IC50 [4] was < 500 nM.
CCS(=O)(=O)Nc1cnc(OCC2CC2)c(-c2cn(C)c(=O)c3oc(F)cc23)c1 [Example 261] was tested, and the IC50 [1] was < 500 nM, the IC50 [2] was > 5000 nM and the IC50 [3] was < 500 nM. For the same molecule, the IC50 [4] was < 500 nM.
For Cn1cc(-c2nc(NS(C)(=O)=O)ncc2Oc2ccc(F)cc2F)c2ccoc2c1=O [Example 262, N-[5-(2,4-difluorophenoxy)-4-(6-methyl-7-oxofuro[2,3-c]pyridin-4-yl)pyrimidin-2-yl]methanesulfonamide], the IC50 [1] was < 500 nM, the IC50 [2] was > 5000 nM and the IC50 [3] was < 500 nM. The IC50 [4] was < 500 nM.
In the case of CCS(=O)(=O)Nc1ncc(Oc2ccc(F)cc2F)c(-c2cn(C)c(=O)c3occc23)n1 [Example 263, N-[5-(2,4-difluorophenoxy)-4-(6-methyl-7-oxofuro[2,3-c]pyridin-4-yl)pyrimidin-2-yl]ethanesulfonamide], the IC50 [1] is reported as < 500 nM, the IC50 [2] is reported as > 5000 nM and the IC50 [3] is reported as < 500 nM. For the same molecule, the IC50 [4] was < 500 nM.
With CCS(=O)(=O)Nc1ncc(OCC2CC2)c(-c2cn(C)c(=O)c3occc23)n1 [Example 264, N-[5-(cyclopropylmethoxy)-4-(6-methyl-7-oxofuro[2,3-c]pyridin-4-yl)pyrimidin-2-yl]ethanesulfonamide] the IC50 [1] was < 500 nM, the IC50 [2] was > 5000 nM and the IC50 [3] was < 500 nM. The IC50 [4] was < 500 nM.
In the case of CCS(=O)(=O)c1ccc(OCC2CC2)c(-c2cn(C)c(=O)c3sc(C(N)=O)cc23)c1 [Example 265, 4-[2-(cyclopropylmethoxy)-5-ethylsulfonylphenyl]-6-methyl-7-oxothieno[2,3-c]pyridine-2-carboxamide], the IC50 [1] is reported as < 500 nM, the IC50 [2] is reported as > 5000 nM and the IC50 [3] is reported as < 500 nM. For the same molecule, the IC50 [4] was < 500 nM.
In the case of CCS(=O)(=O)Nc1ccc(OCC2CC2)c(-c2cn(C)c(=O)c3sc(C(N)=O)cc23)c1 [Example 266, 4-[2-(cyclopropylmethoxy)-5-(ethylsulfonylamino)phenyl]-6-methyl-7-oxothieno[2,3-c]pyridine-2-carboxamide], the IC50 [1] is reported as < 500 nM, the IC50 [2] is reported as > 5000 nM and the IC50 [3] is reported as < 500 nM. For the same molecule, the IC50 [4] was < 500 nM.
For Cn1cc(-c2cc(S(C)(=O)=O)ccc2OCC2CC2)c2cc(C(N)=O)sc2c1=O [Example 267, 4-[2-(cyclopropylmethoxy)-5-methylsulfonylphenyl]-6-methyl-7-oxothieno[2,3-c]pyridine-2-carboxamide], the IC50 [1] was < 500 nM, the IC50 [2] was > 5000 nM and the IC50 [3] was < 500 nM. The IC50 [4] was 500 to 5000 nM.
With CCS(=O)(=O)Nc1cnc(OCC2CC2)c(-c2cn(C)c(=O)c3sc(C(N)=O)cc23)c1 [Example 268, 4-[2-(cyclopropylmethoxy)-5-(ethylsulfonylamino)pyridin-3-yl]-6-methyl-7-oxothieno[2,3-c]pyridine-2-carboxamide] the IC50 [1] was < 500 nM, the IC50 [2] was > 5000 nM and the IC50 [3] was < 500 nM. It also gave an IC50 [4] of 500 to 5000 nM.
CCS(=O)(=O)Nc1ccc(Oc2ccc(F)cc2F)c(-c2cn(C)c(=O)c3oc(C)cc23)c1 [Example 269, N-[4-(2,4-difluorophenoxy)-3-(2,6-dimethyl-7-oxofuro[2,3-c]pyridin-4-yl)phenyl]ethanesulfonamide] was tested, and the IC50 [1] was < 500 nM, the IC50 [2] was > 5000 nM and the IC50 [3] was < 500 nM. The IC50 [4] was < 500 nM.
For CCS(=O)(=O)c1ccc(OCC2CC2)c(-c2cn(C)c(=O)c3oc(C)cc23)c1 [Example 270, 4-[2-(cyclopropylmethoxy)-5-ethylsulfonylphenyl]-2,6-dimethylfuro[2,3-c]pyridine-7-one], the IC50 [1] was < 500 nM, the IC50 [2] was 500 to 5000 nM and the IC50 [3] was < 500 nM. The IC50 [4] was < 500 nM.
Cn1cc(-c2cc(NS(C)(=O)=O)ccc2Oc2ccc(F)cc2F)cc(F)c1=O [Example 271, N-[4-(2,4-difluorophenoxy)-3-(5-fluoro-1-methyl-6-oxopyridin-3-yl)phenyl]methanesulfonamide] was tested, and the IC50 [1] was < 500 nM, the IC50 [2] was > 5000 nM and the IC50 [3] was < 500 nM. For the same molecule, the IC50 [4] was < 500 nM.
With CCS(=O)(=O)c1ccc(OCC2CC2)c(-c2cc(Cl)c(=O)n(C)c2)c1 [Example 272, 3-chloro-5-[2-(cyclopropylmethoxy)-5-ethylsulfonylphenyl]-1-methylpyridin-2-one] the IC50 [1] was < 500 nM, the IC50 [2] was > 5000 nM and the IC50 [3] was < 500 nM. For the same molecule, the IC50 [4] was < 500 nM.
With CCS(=O)(=O)c1ccc(OCC2CC2)c(-c2cc(F)c(=O)n(C)c2)c1 [Example 274, 5-[2-(cyclopropylmethoxy)-5-ethylsulfonylphenyl]-3-fluoro-1-methylpyridin-2-one] the IC50 [1] was 500 to 5000 nM, the IC50 [2] was > 5000 nM and the IC50 [3] was < 500 nM. For the same molecule, the IC50 [4] was 500 to 5000 nM.
With Cn1cc(-c2cc(NS(C)(=O)=O)ccc2Oc2ccc(F)cc2F)cc(C2CC2)c1=O [Example 279, N-[3-(5-cyclopropyl-1-methyl-6-oxopyridin-3-yl)-4-(2,4-difluorophenoxy)phenyl]methanesulfonamide] the IC50 [1] was < 500 nM, the IC50 [2] was > 5000 nM and the IC50 [3] was < 500 nM. The IC50 [4] was < 500 nM.
In the case of CCS(=O)(=O)c1ccc(OCC2CC2)c(-c2cc(C3CC3)c(=O)n(C)c2)c1 [Example 280, 3-cyclopropyl-5-[2-(cyclopropylmethoxy)-5-ethylsulfonylphenyl]-1-methylpyridin-2-one], the IC50 [1] is reported as < 500 nM, the IC50 [2] is reported as > 5000 nM and the IC50 [3] is reported as < 500 nM. For the same molecule, the IC50 [4] was < 500 nM.
For C#Cc1cc(-c2cc(NS(=O)(=O)CC)ccc2Oc2ccc(F)cc2F)cn(C)c1=O [Example 283, N-[4-(2,4-difluorophenoxy)-3-(5-ethynyl-1-methyl-6-oxopyridin-3-yl)phenyl]ethanesulfonamide], the IC50 [1] was < 500 nM, the IC50 [2] was > 5000 nM and the IC50 [3] was < 500 nM. The IC50 [4] was 500 to 5000 nM.
With C#Cc1cc(-c2cc(S(=O)(=O)CC)ccc2OCC2CC2)cn(C)c1=O [Example 284, 5-[2-(cyclopropylmethoxy)-5-ethylsulfonylphenyl]-3-ethynyl-1-methylpyridin-2-one] the IC50 [1] was 500 to 5000 nM, the IC50 [2] was > 5000 nM and the IC50 [3] was < 500 nM. It also gave an IC50 [4] of 500 to 5000 nM.
CCS(=O)(=O)c1ccc(OCC2CC2)c(-c2cc(OC(F)F)c(=O)n(C)c2)c1 [Example 287, 5-[2-(cyclopropylmethoxy)-5-ethylsulfonylphenyl]-3-(difluoromethoxy)-1-methylpyridin-2-one] was tested, and the IC50 [1] was < 500 nM, the IC50 [2] was > 5000 nM and the IC50 [3] was < 500 nM. It also gave an IC50 [4] of 500 to 5000 nM.
In the case of CCS(=O)(=O)Nc1ccc(Oc2ccc(F)cc2F)c(-c2cc(OC(F)F)c(=O)n(C)c2)c1 [Example 289, N-[3-[5-(difluoromethoxy)-1-methyl-6-oxopyridin-3-yl]-4-(2,4-difluorophenoxy)phenyl]ethanesulfonamide], the IC50 [1] is reported as < 500 nM, the IC50 [2] is reported as > 5000 nM and the IC50 [3] is reported as < 500 nM. The IC50 [4] was < 500 nM.
For CCS(=O)(=O)Nc1ccc(Oc2ccc(F)cc2F)c(-c2cc(OCC(F)(F)F)c(=O)n(C)c2)c1 [Example 290, N-[4-(2,4-difluorophenoxy)-3-[1-methyl-6-oxo-5-(2,2,2-trifluoroethoxy)pyridin-3-yl]phenyl]ethanesulfonamide], the IC50 [1] was < 500 nM, the IC50 [2] was > 5000 nM and the IC50 [3] was < 500 nM. For the same molecule, the IC50 [4] was < 500 nM.
For CCS(=O)(=O)Cc1ccc(Oc2ccc(F)cc2F)c(-c2cc(OC(F)F)c(=O)n(C)c2)c1 [Example 291, 3-(difluoromethoxy)-5-[2-(2,4-difluorophenoxy)-5-(ethylsulfonylmethyl)phenyl]-1-methylpyridin-2-one], the IC50 [1] was < 500 nM, the IC50 [2] was > 5000 nM and the IC50 [3] was < 500 nM. The IC50 [4] was < 500 nM.
In the case of CCS(=O)(=O)Cc1ccc(Oc2ccc(F)cc2F)c(-c2cc(OCC(F)(F)F)c(=O)n(C)c2)c1 [Example 292, 5-[2-(2,4-difluorophenoxy)-5-(ethylsulfonylmethyl)phenyl]-1-methyl-3-(2,2,2-trifluoroethoxy)pyridin-2-one], the IC50 [1] is reported as < 500 nM, the IC50 [2] is reported as > 5000 nM and the IC50 [3] is reported as < 500 nM. The IC50 [4] was 500 to 5000 nM.
Cn1cc(Oc2cc(-c3cc(S(C)(=O)=O)ccc3OCC3CC3)cn(C)c2=O)cn1 [Example 293, 5-[2-(cyclopropylmethoxy)-5-methylsulfonylphenyl]-1-methyl-3-(1-methylpyrazol-4-yl)oxypyridin-2-one] was tested, and the IC50 [1] was 500 to 5000 nM, the IC50 [2] was > 5000 nM and the IC50 [3] was < 500 nM. The IC50 [4] was 500 to 5000 nM.
